From patent US20050222229A1, “Fungicidal mixtures” (priority 2002, published 2005)

System: Plasmopara viticola
Assay: Persistency against peronospora of grapevine caused by Plasmopara viticola (potted grapevines, inoculation 3 days after spraying)
Format: in vivo
Conditions: grapevine Müller-Thurgau, inoculated 3 days after treatment
Experimental: The active compounds, separately or together, were formulated as a stock solution comprising 0.25% by weight of active compound in acetone or DMSO. 1% by weight of the emulsifier Uniperol® EL (wetting agent having emulsifying and dispersing action based on ethoxylated alkylphenols) was added to the solution, and the mixture was diluted with water to the desired concentration.
Use example: Persistency against peronospora of grapevine caused by Plasmopara viticola.
Leaves of potted grapevines of the cultivar “Müller-Thurgau” were sprayed to run off point with an aqueous suspension having the concentration of active compound stated below. To be able to assess the persistency of the substances, the plants were, after the spray coating had dried on, placed in a greenhouse for 3 days. Only then were the leaves inoculated with an aqueous zoospore suspension of Plasmopara viticola. The grapevines were then initially placed in a water-vapor-saturated chamber at 24° C. for 48 hours and then in a greenhouse at temperatures between 20 and 30° C. for 5 days. After this period of time, the plants were, to promote sporangiophore eruption, again placed in a humid chamber for 16 hours. The extent of the development of the infection on the undersides of the leaves was then determined visually.
for evaluation, the visually determined values for the percentages of infected leaf area were converted into efficacies in. % of the untreated control.
The efficacy (E) is calculated as follows using Abbot's formula: E=(1−α/β)·100 • α corresponds to the fungal infection of the treated plants in % and • β corresponds to the fungal infection of the untreated (control) plants in %
An efficacy of 0 means that the infection level of the treated plants corresponds to that of the untreated control plants; an efficacy of 100 means that the treated plants were not infected.
The expected efficacies of the active compound mixtures are determined using Colby's formula [R. S. Colby, Weeds 15, 20-22 (1967)] and compared with the observed efficacies. Colby's formula: E=x+y−x·y/100 • E expected efficacy, expressed in % of the untreated control, when using the mixture of the active compounds A and B at the concentrations a and b • x efficacy, expressed in % of the untreated control, when using active compound A at a concentration of a
y efficacy, expressed in % of the untreated control, when using active compound B at a concentration of b

[1] = 0.375 ppm active compound in the spray liquor
[2] = 0.75 ppm active compound in the spray liquor
[3] = 1.5 ppm active compound in the spray liquor
[4] = 3 ppm active compound in the spray liquor
[5] = 6 ppm active compound in the spray liquor

Row | SMILES | Efficacy in % of the untreated control (3.75 ppm active compound in the spray liquor) [%] | Efficacy in % of the untreated control (7.5 ppm active compound in the spray liquor) [%] | Efficacy in % of the untreated control (15 ppm active compound in the spray liquor) [%] | Efficacy in % of the untreated control [1] [%] | Efficacy in % of the untreated control [2] [%] | Efficacy in % of the untreated control [3] [%] | Efficacy in % of the untreated control [4] [%] | Efficacy in % of the untreated control [5] [%]
1 | N#Cc1sc2c(=O)c3ccccc3c(=O)c=2sc1C#N [II, dithianon] | 0 | 20 | 32 |  |  |  |  | 
2 | CSC1=N[C@@](C)(c2ccccc2)C(=O)N1Nc1ccccc1 [Ia, fenamidone] |  |  |  | 66 | 77 | 93 | 89 | 94
3 | CC1(c2ccc(Oc3ccccc3)cc2)OC(=O)N(Nc2ccccc2)C1=O (stereo not shown) [Ib, famoxadone] |  |  |  | 0 | 77 | 83 | 89 | 89
